According to article PMC10709440, “High-throughput ligand profile characterization in novel cell lines expressing seven heterologous insect olfactory receptors for the detection of volatile plant biomarkers” (Scientific Reports, 2023):
Several values for one entry are separate records, joined by “and”; a condition that tells them apart may be missing. Equal values may be shown once. Read-outs that look alike come from different tables or passages of the source.

Legend:
Drosophila OR13a = target: T1, Drosophila OR13a (Drosophila melanogaster, UniProt Q9VXL0); assay: Calcium ion fluorescence (GCaMP6) assay, OR13a stable HEK293 cell line; assay type: cell-based
T1 construct: expressed in transfected cells
T1 sequence (Q9VXL0 1-418): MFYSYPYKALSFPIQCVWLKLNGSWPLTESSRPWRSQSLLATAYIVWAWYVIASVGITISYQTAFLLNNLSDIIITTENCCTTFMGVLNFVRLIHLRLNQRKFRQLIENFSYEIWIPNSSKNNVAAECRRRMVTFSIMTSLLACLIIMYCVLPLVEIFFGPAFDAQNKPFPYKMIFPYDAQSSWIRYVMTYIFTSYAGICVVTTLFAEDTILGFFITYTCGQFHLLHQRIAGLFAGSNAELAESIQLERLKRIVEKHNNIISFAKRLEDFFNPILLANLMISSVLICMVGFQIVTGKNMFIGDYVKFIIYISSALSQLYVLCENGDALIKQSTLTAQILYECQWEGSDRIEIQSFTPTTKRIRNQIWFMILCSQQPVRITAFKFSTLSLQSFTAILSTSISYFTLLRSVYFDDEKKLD
T1 sequence (Q9VNB5 1-486 partner): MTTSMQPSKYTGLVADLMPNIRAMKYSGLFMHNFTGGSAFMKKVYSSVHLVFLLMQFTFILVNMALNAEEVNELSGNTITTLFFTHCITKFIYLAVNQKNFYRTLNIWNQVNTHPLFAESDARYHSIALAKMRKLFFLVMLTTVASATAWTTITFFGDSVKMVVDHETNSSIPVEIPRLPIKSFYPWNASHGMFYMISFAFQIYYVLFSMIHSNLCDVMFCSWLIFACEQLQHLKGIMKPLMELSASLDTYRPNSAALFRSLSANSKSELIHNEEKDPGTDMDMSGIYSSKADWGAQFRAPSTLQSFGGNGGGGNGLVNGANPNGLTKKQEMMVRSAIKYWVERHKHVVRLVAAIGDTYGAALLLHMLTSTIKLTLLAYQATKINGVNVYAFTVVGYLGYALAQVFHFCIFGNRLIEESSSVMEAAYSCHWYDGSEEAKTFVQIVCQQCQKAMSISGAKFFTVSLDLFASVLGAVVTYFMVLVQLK
Method in brief: (§1)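 HEK293 lines stably expressing each Drosophila OR with GCaMP6, doxycycline-induced (1 μg/mL) 48 or 72 h. Fluorescence recorded 5 s baseline then 30 s after VOC injection at pH 7.3; ΔF=(FMAX−F0)/F0, normalized to 50 µM VUAA1 response per line, triplicate wells averaged; concentration series 0.01–100 μM.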

Drosophila OR98a = target: T2, Drosophila OR98a (Drosophila melanogaster, UniProt Q9VAZ3); assay: Calcium ion fluorescence (GCaMP6) assay, OR98a stable HEK293 cell line; assay type: cell-based
T2 construct: expressed in transfected cells
T2 sequence (Q9VAZ3 1-397): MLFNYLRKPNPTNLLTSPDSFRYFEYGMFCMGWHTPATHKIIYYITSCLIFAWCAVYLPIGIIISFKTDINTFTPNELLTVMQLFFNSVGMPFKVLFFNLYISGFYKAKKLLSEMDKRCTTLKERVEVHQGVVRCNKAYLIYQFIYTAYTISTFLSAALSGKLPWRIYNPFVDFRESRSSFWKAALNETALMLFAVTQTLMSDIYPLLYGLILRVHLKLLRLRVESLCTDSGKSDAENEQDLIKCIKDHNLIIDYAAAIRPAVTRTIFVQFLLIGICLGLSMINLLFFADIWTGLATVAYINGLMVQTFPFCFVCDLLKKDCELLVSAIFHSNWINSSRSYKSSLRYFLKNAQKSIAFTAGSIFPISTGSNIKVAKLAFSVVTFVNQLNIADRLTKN
T2 sequence (Q9VNB5 1-486 partner): T1 sequence (Q9VNB5 1-486 partner)
Method in brief: as §1

[1] = HEK293, read-out: OR13a Average response (VUAA1-normalized), 1 μM VOC, 50 μM VUAA1 = 1, responses not exceeding 0.05 considered 0
[2] = HEK293, read-out: OR13a Average response (VUAA1-normalized), 10 μM VOC, 50 μM VUAA1 = 1, responses not exceeding 0.05 considered 0
[3] = HEK293, read-out: OR13a Average response (VUAA1-normalized), 100 μM VOC, 50 μM VUAA1 = 1, responses not exceeding 0.05 considered 0
[4] = HEK293, read-out: OR13a response (VUAA1-normalized response), VOC concentration 1 μM
[5] = HEK293, read-out: OR13a response (VUAA1-normalized response), VOC concentration 10 μM
[6] = HEK293, read-out: OR13a response (VUAA1-normalized response), VOC concentration 100 μM
[7] = concentration 1, normalized fluorescence change, values below 0.05 threshold given as 0
[8] = concentration 10, normalized fluorescence change, values below 0.05 threshold given as 0
[9] = concentration 100, normalized fluorescence change, values below 0.05 threshold given as 0
[10] = HEK293, read-out: Average response
[11] = HEK293, read-out: OR98a response (VUAA1-normalized response)
[12] = HEK293, read-out: OR98a Average response (VUAA1-normalized)
[13] = ligand concentration 1 (unit not given), threshold 0.05, below shown as 0
[14] = ligand concentration 10 (unit not given), threshold 0.05, below shown as 0
[15] = ligand concentration 100 (unit not given), threshold 0.05, below shown as 0

CCCCCO [1-pentanol]
activation at 1 µM (Drosophila OR13a; [1]): 0%
activation at 10 µM (Drosophila OR13a; [2]): 1.6%
activation at 100 µM (Drosophila OR13a; [3]): 0%
activation at 1 µM (Drosophila OR13a; [4]): 0%
activation at 10 µM (Drosophila OR13a; [5]): 0%
activation at 100 µM (Drosophila OR13a; [6]): 0%
DF norm AVERAGE OR13a (Drosophila OR13a; [7]): 0
DF norm AVERAGE OR13a (Drosophila OR13a; [8]): 0
DF norm AVERAGE OR13a (Drosophila OR13a; [9]): 0
activation at 1 µM (Drosophila OR98a; [10]): 0%
activation at 10 µM (Drosophila OR98a; [10]): 2.81%
activation at 100 µM (Drosophila OR98a; [10]): 0%
activation at 1 µM (Drosophila OR98a; [11]): 0%
activation at 10 µM (Drosophila OR98a; [11]): 0%
activation at 100 µM (Drosophila OR98a; [11]): 0%
DF norm AVERAGE OR98a (Drosophila OR98a; [7]): 0
DF norm AVERAGE OR98a (Drosophila OR98a; [8]): 0
DF norm AVERAGE OR98a (Drosophila OR98a; [9]): 0

C=CC(O)CCCCC (centres unmarked) [1-octen-3-ol]
EC50 (Drosophila OR13a; AVERAGE EC50, the 12th table, corresponds to average EC50, given with 95% confidence interval): 1440 nM
EC50 (Drosophila OR13a; EC50, AVERAGE of replicate fits, the 12th table, N 5): 1440 nM
EC50 (Drosophila OR13a; EC50, AVERAGE of replicate fits, the 12th table, arithmetic average, N 5): 1630 nM
EC50 (Drosophila OR13a; EC50, OR13a cell line, fitted Hill equation, Hill coefficient constrained to 1, maximal response max 1): 1440 nM
EC50 (Drosophila OR13a; EC50, fitted average curve, the 12th table, fit to the average curve, n 0.854956): 1410 nM
EC50 (Drosophila OR13a; EC50, fitted parameter per biological replicate, the 12th table, OR13a D-R 1-octen-3-ol, individual replicate fits, MIN 0, n 1): 2370 nM and 2300 nM and 753 nM and 1970 nM and 761 nM
EC50 (Drosophila OR13a; EC50, fitted parameter per biological replicate, the 12th table, individual replicate fits): 2370 nM and 2300 nM and 753 nM and 1970 nM and 761 nM
activation at 1 µM (Drosophila OR13a; [1]): 31%
activation at 10 µM (Drosophila OR13a; [2]): 41%
activation at 100 µM (Drosophila OR13a; [3]): 38%
activation at 1 µM (Drosophila OR13a; [4]): 31%
activation at 10 µM (Drosophila OR13a; [5]): 41%
activation at 100 µM (Drosophila OR13a; [6]): 38%
Emax (Drosophila OR13a; HEK293, read-out: VUAA1 normalized MAX response): 46%
DF norm AVERAGE OR13a (Drosophila OR13a; [7]): 0.3125
DF norm AVERAGE OR13a (Drosophila OR13a; [8]): 0.4133
DF norm AVERAGE OR13a (Drosophila OR13a; [9]): 0.3797
dose-response, response per biological replicate (Drosophila OR13a; the 12th table, VOC concentration 0.15): 0 (2×) and 0.1313
dose-response, AVERAGE response (Drosophila OR13a; the 12th table, VOC concentration 0.15, N 3): 0.04376
dose-response, response per biological replicate (Drosophila OR13a; the 12th table, VOC concentration 0.3): 0 (3×) and 0.1249 and 0.1272
dose-response, AVERAGE response (Drosophila OR13a; the 12th table, VOC concentration 0.3, N 5): 0.0504
dose-response, response per biological replicate (Drosophila OR13a; the 12th table, VOC concentration 0.6): 0 (2×) and 0.1801 and 0.08156 and 0.213
dose-response, AVERAGE response (Drosophila OR13a; the 12th table, VOC concentration 0.6, N 5): 0.09494
dose-response, response per biological replicate (Drosophila OR13a; the 12th table, VOC concentration 1.25): 0.2071 and 0.2793 and 0.1886 and 0.3516
dose-response, AVERAGE response (Drosophila OR13a; the 12th table, VOC concentration 1.25, N 4): 0.2566
dose-response, response per biological replicate (Drosophila OR13a; the 12th table, VOC concentration 2.5): 0.2646 and 0.1888 and 0.4175 and 0.197 and 0.3823
dose-response, AVERAGE response (Drosophila OR13a; the 12th table, VOC concentration 2.5, N 5): 0.2901
dose-response, response per biological replicate (Drosophila OR13a; the 12th table, VOC concentration 5): 0.42 and 0.3195 and 0.4159 and 0.2978 and 0.4731
dose-response, AVERAGE response (Drosophila OR13a; the 12th table, VOC concentration 5, N 5): 0.3853
dose-response, response per biological replicate (Drosophila OR13a; the 12th table, VOC concentration 10): 0.4322 and 0.4316 and 0.4215 and 0.2626 and 0.4446
dose-response, AVERAGE response (Drosophila OR13a; the 12th table, VOC concentration 10, N 5): 0.3985
dose-response, response per biological replicate (Drosophila OR13a; the 12th table, VOC concentration 20): 0.4616 and 0.4143 and 0.5545 and 0.335 and 0.5659
dose-response, AVERAGE response (Drosophila OR13a; the 12th table, VOC concentration 20, N 5): 0.4662
dose-response, response per biological replicate (Drosophila OR13a; the 12th table, VOC concentration 40): 0.4507 and 0.4868 and 0.5125 and 0.286 and 0.5426
dose-response, AVERAGE response (Drosophila OR13a; the 12th table, VOC concentration 40, N 5): 0.4557
dose-response, response per biological replicate (Drosophila OR13a; the 12th table, VOC concentration 60): 0.3021 and 0.4978 and 0.4725 and 0.5843
dose-response, AVERAGE response (Drosophila OR13a; the 12th table, VOC concentration 60, N 4): 0.4642
dose-response, response per biological replicate (Drosophila OR13a; the 12th table, VOC concentration 80): 0.4797 and 0.3236 and 0.407 and 0.4017 and 0.4897
dose-response, AVERAGE response (Drosophila OR13a; the 12th table, VOC concentration 80, N 5): 0.4203
dose-response, response per biological replicate (Drosophila OR13a; the 12th table, VOC concentration 100): 0.3778 and 0.3442 and 0.2898 and 0.4501
dose-response, AVERAGE response (Drosophila OR13a; the 12th table, VOC concentration 100, N 4): 0.3654
AVERAGE MAX (Drosophila OR13a; the 12th table, average of replicate fits, N 5): 0.459
MAX, fitted average curve (Drosophila OR13a; the 12th table, fit to the average curve, n 0.854956): 0.4618
MAX, fitted parameter per biological replicate (Drosophila OR13a; the 12th table, individual replicate fits): 0.5125 and 0.4135 and 0.4717 and 0.37 and 0.5273
activation at 1 µM (Drosophila OR98a; [10]): 0%
activation at 10 µM (Drosophila OR98a; [10]): 1.13%
activation at 100 µM (Drosophila OR98a; [10]): 21%
activation at 1 µM (Drosophila OR98a; [12]): 0%
activation at 10 µM (Drosophila OR98a; [12]): 1%
activation at 100 µM (Drosophila OR98a; [12]): 21%
activation at 1 µM (Drosophila OR98a; [11]): 0%
activation at 10 µM (Drosophila OR98a; [11]): 0%
activation at 100 µM (Drosophila OR98a; [11]): 21%
DF norm AVERAGE OR98a (Drosophila OR98a; [7]): 0
DF norm AVERAGE OR98a (Drosophila OR98a; [8]): 0
DF norm AVERAGE OR98a (Drosophila OR98a; [9]): 0.2102

CC1=CCC2CC1C2(C)C (stereo not drawn) [alpha-pinene]
activation at 1 µM (Drosophila OR13a; [1]): 0%
activation at 10 µM (Drosophila OR13a; [2]): 0%
activation at 100 µM (Drosophila OR13a; [3]): 1.73%
activation at 1 µM (Drosophila OR13a; [4]): 0%
activation at 10 µM (Drosophila OR13a; [5]): 0%
activation at 100 µM (Drosophila OR13a; [6]): 0%
DF norm AVERAGE OR13a (Drosophila OR13a; [13]): 0
DF norm AVERAGE OR13a (Drosophila OR13a; [14]): 0
DF norm AVERAGE OR13a (Drosophila OR13a; [15]): 0
activation at 1 µM (Drosophila OR98a; [10]): 0%
activation at 10 µM (Drosophila OR98a; [10]): 0%
activation at 100 µM (Drosophila OR98a; [10]): 0%
activation at 1 µM (Drosophila OR98a; [11]): 0%
activation at 10 µM (Drosophila OR98a; [11]): 0%
activation at 100 µM (Drosophila OR98a; [11]): 0%
DF norm AVERAGE OR98a (Drosophila OR98a; [13]): 0
DF norm AVERAGE OR98a (Drosophila OR98a; [14]): 0
DF norm AVERAGE OR98a (Drosophila OR98a; [15]): 0
